PMC10794144, “A novel antibiotic class targeting the lipopolysaccharide transporter” (Nature, 2024)
In brackets after ≈: the same amount, converted by molar mass.

Tests used:
[1] = system: A. baumannii; test: microbe, parasite or virus in culture
Summary of the method: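 CLSI broth microdilution (M07/M100); inoculum from 0.5 McFarland suspension diluted in CAMHB; MIC = lowest concentration with no visible growth or where OD600 stops falling.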

[2] = system: A. baumannii; test: Immunocompetent mouse septicaemia infection model; assay type: in vivo
Experimental: Septicaemia was induced in CD-1 immunocompetent male mice by an intraperitoneal inoculation of a bacterial suspension of the tested A. baumannii isolate at a challenge of approximately 1–2 log[CFU] above the determined median lethal dose (resulting in 10^5 to 10^7 CFU per mouse). […] Mouse survival was followed over 6–7 days. GraphPad Prism 8 was used for graphical presentation of the data. Septicaemia studies with mutant derivative isolates obtained in resistance studies were performed as described above, using a bacterial challenge as determined for the parental isolate.

[3] = murine septicaemia, MDR A. baumannii APV00535 (ACC00535), MCP 0.1 mg/kg, mark per mouse (10 mice), study VDD3948

In the case of `CN1C(=O)[C@H](CCCCN)NC(=O)[C@H](CCCN)NCc2cccnc2Sc2c(Cl)ccc(Cl)c2CNC(=O)[C@@H]1Cc1c[nH]c2ccccc12` [RO7075573], the “MIC 80%” value ([1]; ROB08708, Study LGC285582) is reported as at most 0.06 µg/mL, the “MIC 100%” value ([1]; ROB08708, Study LGC285582) is reported as 64 µg/mL (≈ 86.5 µM) and the “MIC 80%” value ([1]; ROB08708, Study LGC286210) is reported as 0.12 µg/mL (≈ 0.162 µM). For the same molecule, the “MIC 100%” value ([1]; ROB08708, Study LGC286210) was 64 µg/mL (≈ 86.5 µM), the “MIC 80%” value ([1]; ROB08708, Study LGC293598) was at most 0.06 µg/mL and the “MIC 100%” value ([1]; ROB08708, Study LGC293598) was over 64 µg/mL. For the same molecule, the “MIC 80%” value ([1]; ROB08708, Study LGC294355) was 0.12 µg/mL (≈ 0.162 µM), the “MIC 100%” value ([1]; ROB08708, Study LGC294355) was over 64 µg/mL and the “MIC 80%” value ([1]; ROB08708, Study LGC295147) was 0.12 µg/mL (≈ 0.162 µM). For the same molecule, the “MIC 100%” value ([1]; ROB08708, Study LGC295147) was 64 µg/mL (≈ 86.5 µM), the “MIC 80%” value ([1]; ROB08708, Study LGC296813) was 0.12 µg/mL (≈ 0.162 µM) and the “MIC 100%” value ([1]; ROB08708, Study LGC296813) was over 64 µg/mL. The “MIC 80%” value ([1]; ROB08708, Study LGC299544) was 0.12 µg/mL (≈ 0.162 µM), the “MIC 100%” value ([1]; ROB08708, Study LGC299544) was 64 µg/mL (≈ 86.5 µM) and the “MIC 80%” value ([1]; ROB08708, Study LGC301026) was 0.12 µg/mL (≈ 0.162 µM). The “MIC 100%” value ([1]; ROB08708, Study LGC301026) was over 64 µg/mL, the “MIC 80%” value ([1]; ROB08708, Study LGC308175) was at most 0.06 µg/mL and the “MIC 100%” value ([1]; ROB08708, Study LGC308175) was 64 µg/mL (≈ 86.5 µM). The “MIC 80%” value ([1]; ROB08708, Study ROC010) was 0.12 µg/mL (≈ 0.162 µM), the “MIC 100%” value ([1]; ROB08708, Study ROC010) was 16 µg/mL (≈ 21.6 µM) and the “MIC 80%” value ([1]; ROB08708, Study ROC012) was 0.12 µg/mL (≈ 0.162 µM). The “MIC 100%” value ([1]; ROB08708, Study ROC012) was 64 µg/mL (≈ 86.5 µM), the “MIC 80%” value ([1]; ROB08709, Study LGC281440) was 0.12 µg/mL (≈ 0.162 µM) and the “MIC 100%” value ([1]; ROB08709, Study LGC281440) was 16 µg/mL (≈ 21.6 µM). For the same molecule, the “MIC 80%” value ([1]; ROB08709, Study LGC282160) was 0.12 µg/mL (≈ 0.162 µM), the “MIC 100%” value ([1]; ROB08709, Study LGC282160) was over 64 µg/mL and the “MIC 80%” value ([1]; ROB08709, Study LGC284879) was 0.25 µg/mL (≈ 0.338 µM). The “MIC 100%” value ([1]; ROB08709, Study LGC284879) was over 64 µg/mL, the “MIC 80%” value ([1]; ROB08709, Study LGC285582) was 0.12 µg/mL (≈ 0.162 µM) and the “MIC 100%” value ([1]; ROB08709, Study LGC285582) was 64 µg/mL (≈ 86.5 µM). The “MIC 80%” value ([1]; ROB08709, Study LGC286210) was 0.12 µg/mL (≈ 0.162 µM), the “MIC 100%” value ([1]; ROB08709, Study LGC286210) was 64 µg/mL (≈ 86.5 µM) and the “MIC 80%” value ([1]; ROB08709, Study LGC293598) was 0.12 µg/mL (≈ 0.162 µM). For the same molecule, the “MIC 100%” value ([1]; ROB08709, Study LGC293598) was over 64 µg/mL, the “MIC 80%” value ([1]; ROB08709, Study LGC294355) was 0.12 µg/mL (≈ 0.162 µM) and the “MIC 100%” value ([1]; ROB08709, Study LGC294355) was over 64 µg/mL. For the same molecule, the “MIC 80%” value ([1]; ROB08709, Study LGC295147) was 0.12 µg/mL (≈ 0.162 µM), the “MIC 100%” value ([1]; ROB08709, Study LGC295147) was 64 µg/mL (≈ 86.5 µM) and the “MIC 80%” value ([1]; ROB08709, Study LGC296813) was 0.12 µg/mL (≈ 0.162 µM). For the same molecule, the “MIC 100%” value ([1]; ROB08709, Study LGC296813) was 64 µg/mL (≈ 86.5 µM), the “MIC 80%” value ([1]; ROB08709, Study LGC299544) was 0.25 µg/mL (≈ 0.338 µM) and the “MIC 100%” value ([1]; ROB08709, Study LGC299544) was 64 µg/mL (≈ 86.5 µM). For the same molecule, the “MIC 80%” value ([1]; ROB08709, Study LGC301026) was 0.12 µg/mL (≈ 0.162 µM), the “MIC 100%” value ([1]; ROB08709, Study LGC301026) was 64 µg/mL (≈ 86.5 µM) and the “MIC 80%” value ([1]; ROB08709, Study LGC308175) was 0.12 µg/mL (≈ 0.162 µM). For the same molecule, the “MIC 100%” value ([1]; ROB08709, Study LGC308175) was over 64 µg/mL, the “MIC 80%” value ([1]; ROB08709, Study ROC010) was 0.25 µg/mL (≈ 0.338 µM) and the “MIC 100%” value ([1]; ROB08709, Study ROC010) was 64 µg/mL (≈ 86.5 µM). For the same molecule, the “MIC 80%” value ([1]; ROB08709, Study ROC012) was 0.25 µg/mL (≈ 0.338 µM), the “MIC 100%” value ([1]; ROB08709, Study ROC012) was 64 µg/mL (≈ 86.5 µM) and the “MIC 80%” value ([1]; ROB08710, Study LGC281440) was 0.25 µg/mL (≈ 0.338 µM). For the same molecule, the “MIC 100%” value ([1]; ROB08710, Study LGC281440) was 8 µg/mL (≈ 10.8 µM), the “MIC 80%” value ([1]; ROB08710, Study LGC282160) was 0.25 µg/mL (≈ 0.338 µM) and the “MIC 100%” value ([1]; ROB08710, Study LGC282160) was 64 µg/mL (≈ 86.5 µM). The “MIC 80%” value ([1]; ROB08710, Study LGC284879) was 0.25 µg/mL (≈ 0.338 µM), the “MIC 100%” value ([1]; ROB08710, Study LGC284879) was over 64 µg/mL and the “MIC 80%” value ([1]; ROB08710, Study LGC285582) was 0.25 µg/mL (≈ 0.338 µM). The “MIC 100%” value ([1]; ROB08710, Study LGC285582) was 64 µg/mL (≈ 86.5 µM), the “MIC 80%” value ([1]; ROB08710, Study LGC286210) was 0.12 µg/mL (≈ 0.162 µM) and the “MIC 100%” value ([1]; ROB08710, Study LGC286210) was 64 µg/mL (≈ 86.5 µM). For the same molecule, the “MIC 80%” value ([1]; ROB08710, Study LGC293598) was 0.12 µg/mL (≈ 0.162 µM), the “MIC 100%” value ([1]; ROB08710, Study LGC293598) was over 64 µg/mL and the “MIC 80%” value ([1]; ROB08710, Study LGC294355) was 0.5 µg/mL (≈ 0.676 µM). For the same molecule, the “MIC 100%” value ([1]; ROB08710, Study LGC294355) was over 64 µg/mL, the “MIC 80%” value ([1]; ROB08710, Study LGC295147) was 0.12 µg/mL (≈ 0.162 µM) and the “MIC 100%” value ([1]; ROB08710, Study LGC295147) was 32 µg/mL (≈ 43.3 µM). For the same molecule, the “MIC 80%” value ([1]; ROB08710, Study LGC296813) was 0.12 µg/mL (≈ 0.162 µM), the “MIC 100%” value ([1]; ROB08710, Study LGC296813) was 64 µg/mL (≈ 86.5 µM) and the “MIC 80%” value ([1]; ROB08710, Study LGC299544) was 0.5 µg/mL (≈ 0.676 µM). The “MIC 100%” value ([1]; ROB08710, Study LGC299544) was 64 µg/mL (≈ 86.5 µM), the “MIC 80%” value ([1]; ROB08710, Study LGC301026) was 0.12 µg/mL (≈ 0.162 µM) and the “MIC 100%” value ([1]; ROB08710, Study LGC301026) was 64 µg/mL (≈ 86.5 µM). The “MIC 80%” value ([1]; ROB08710, Study LGC308175) was 0.12 µg/mL (≈ 0.162 µM), the “MIC 100%” value ([1]; ROB08710, Study LGC308175) was 32 µg/mL (≈ 43.3 µM) and the “MIC 80%” value ([1]; ROB08710, Study ROC010) was 0.25 µg/mL (≈ 0.338 µM). The “MIC 100%” value ([1]; ROB08710, Study ROC010) was 0.5 µg/mL (≈ 0.676 µM), the “MIC 80%” value ([1]; ROB08710, Study ROC012) was 0.25 µg/mL (≈ 0.338 µM) and the “MIC 100%” value ([1]; ROB08710, Study ROC012) was 32 µg/mL (≈ 43.3 µM). For the same molecule, the “Fold more potent than RO7036668” value ([1]; panel of A. baumannii) was 4- to 64 fold, the “Protection in lethal sepsis model” value ([2]; ACC00535, immunocompetent mice, s.c. doses between 0.1 and 0.3 mg per kg at 1 h and 5 h) was “complete protection” and the “Survivors, 2016-02-03” value ([2]; murine septicaemia, MDR A. baumannii APV00535 (ACC00535), MCP 0.01 mg/kg, mark per mouse (10 mice), study VDD3948) was 1. For the same molecule, the “Survivors, 2016-02-03” value ([2]; murine septicaemia, MDR A. baumannii APV00535 (ACC00535), MCP 0.03 mg/kg, mark per mouse (10 mice), study VDD3948) was 1, the “Survivors, 2016-02-03” value [2, 3] was 1 and the “Survivors, 2016-02-04” value [2, 3] was 1.
